Experimental data: US11534408B2, “Microcapsules and methods of using the same” (priority 2018, dated 2022)

Tested on: Pseudomonas aeruginosa strain PAO1
Assay: Diffusion of antibiotic molecules through the membrane of PAO1 nanoculture capsules
Assay type: cell-based
Protocol: FIGS. 9A-9C provide representative brightfield images of the presently disclosed nanoculture capsules. Pseudomonas aeruginosa PAO1 strain was used as the bacterial inoculum for the inner phase of the capsules. Antibiotics, including tobramycin and tetracycline, were introduced 24 hours after encapsulation. (9A) Untreated PAO1 nanoculture after 24 hours. (9B) PAO1 nanoculture treated with 50 ug/ml tobramycin. (9C) PAO1 nanoculture treated with 50 ug/ml tetracycline.
The presently disclosed polymer was used to investigate the diffusion of antibiotic molecules through the membrane. Pseudomonas aeruginosa strain PAO1 was used as the bacterial inoculum for the inner phase of the nanoculture capsules. Antibiotics, including tobramycin and tetracycline, to which the PAO1 were sensitive, were introduced 24 hours after encapsulation. A 24-hour incubation period allowed for the confluent growth of PAO1. […] Microcapsules used in FIGS. 9A-9C were generated by using (H:V)=(0.6:1) with 3 ppm Pt catalyst and 0% DMAA. The generated microcapsules were heat treated for 5 minutes at 70° C. immediately after encapsulation. Following heat treatment, capsules were incubated at 37° C. for 24 hours.

| SMILES | Ability to permeate and diffuse through the membrane (inferred from PAO1 killing at 50 ug/ml, membrane (H:V)=(0.6:1), 3 ppm Pt, 0% DMAA) | PAO1 cells in nanoculture capsules after antibiotic treatment (50 ug/ml antibiotic introduced 24 hours after encapsulation, capsules (H:V)=(0.6:1), 3 ppm Pt catalyst, 0% DMAA, heat treated 5 minutes at 70° C.) | Ability to permeate and diffuse through the membrane (not told) |
| --- | --- | --- | --- |
| CN(C)[C@@H]1C(O)=C(C(N)=O)C(=O)[C@@]2(O)C(O)=C3C(=O)c4c(O)cccc4[C@@](C)(O)[C@H]3C[C@@H]12 [tetracycline] | able to diffuse through the membrane |  |  |
| NC[C@H]1O[C@H](O[C@H]2[C@H](O)[C@@H](O[C@H]3O[C@H](CO)[C@@H](O)[C@H](N)[C@H]3O)[C@H](N)C[C@@H]2N)[C@H](N)C[C@@H]1O [tobramycin] |  | persisted | unable to permeate and diffuse through the membrane |
